Source: patent publication US12077503B2, “Substituted cyclic amides and their use as herbicides” (FMC CORPORATION, priority 2015, dated 2024)

What was measured:
Format in all cases: in vivo
Kochia (Kochia scoparia) [1] = test: Test A preemergence; details: Bassia scoparia, pre-emergence, 240 h; for pest or weed control at 125 g/ha: 125 g ai/ha, Preemergence, visual injury rating after approximately 10 d, read-out: Kochia plant response rating (0 to 100 scale, 0 is no effect, 100 is complete control); for pest or weed control at 500 g/ha: 500 g ai/ha, preemergence, visual injury rating about 10 d after treatment, 0 to 100 scale (0 no effect, 100 complete control), read-out: Kochia plant response rating
Summary of the method: (§1)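 Visual injury scores from 0, no effect, to 100, complete control, were assigned versus untreated controls roughly 10 d after treatment in the greenhouse. Test chemicals, formulated with surfactant in a non-phytotoxic solvent, were applied to planted seeds as a preemergence soil spray or postemergence to one- to two-leaf plants 2 to 10 cm tall, in loam–sand soil.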

[2] = test system: barnyardgrass (Echinochloa crus-galli); test: Test A preemergence; details: Echinochloa crus-galli, pre-emergence, 240 h; for pest or weed control at 125 g/ha: 125 g ai/ha, Preemergence, visual injury rating after approximately 10 d, read-out: Barnyardgrass plant response rating (0 to 100 scale, 0 is no effect, 100 is complete control); for pest or weed control at 500 g/ha: 500 g ai/ha, preemergence, visual injury rating about 10 d after treatment, 0 to 100 scale (0 no effect, 100 complete control), read-out: Barnyardgrass plant response rating
Summary of the method: as §1

[3] = test system: giant foxtail (Setaria faberii); test: Test A preemergence; details: Setaria faberi, pre-emergence, 240 h; for pest or weed control at 125 g/ha: 125 g ai/ha, Preemergence, visual injury rating after approximately 10 d, read-out: Foxtail, Giant plant response rating (0 to 100 scale, 0 is no effect, 100 is complete control); for pest or weed control at 500 g/ha: 500 g ai/ha, preemergence, visual injury rating about 10 d after treatment, 0 to 100 scale (0 no effect, 100 complete control), read-out: Foxtail, Giant plant response rating
Summary of the method: as §1

[4] = test system: pigweed (Amaranthus retroflexus); test: Test A preemergence; details: Amaranthus retroflexus, pre-emergence, 240 h; for pest or weed control at 125 g/ha: 125 g ai/ha, Preemergence, visual injury rating after approximately 10 d, read-out: Pigweed plant response rating (0 to 100 scale, 0 is no effect, 100 is complete control); for pest or weed control at 500 g/ha: 500 g ai/ha, preemergence, visual injury rating about 10 d after treatment, 0 to 100 scale (0 no effect, 100 complete control), read-out: Pigweed plant response rating
[5] = test system: ragweed (common ragweed, Ambrosia elatior); test: Test A preemergence; details: Ambrosia artemisiifolia, pre-emergence, 240 h; for pest or weed control at 125 g/ha: 125 g ai/ha, Preemergence, visual injury rating after approximately 10 d, read-out: Ragweed plant response rating (0 to 100 scale, 0 is no effect, 100 is complete control); for pest or weed control at 500 g/ha: 500 g ai/ha, preemergence, visual injury rating about 10 d after treatment, 0 to 100 scale (0 no effect, 100 complete control), read-out: Ragweed plant response rating
Summary of the method: as §1

[6] = test system: ryegrass, Italian (Italian ryegrass, Lolium multiflorum); test: Test A preemergence; details: Lolium multiflorum, pre-emergence, 240 h; for pest or weed control at 125 g/ha: 125 g ai/ha, Preemergence, visual injury rating after approximately 10 d, read-out: Ryegrass, Italian plant response rating (0 to 100 scale, 0 is no effect, 100 is complete control); for pest or weed control at 500 g/ha: 500 g ai/ha, preemergence, visual injury rating about 10 d after treatment, 0 to 100 scale (0 no effect, 100 complete control), read-out: Ryegrass, Italian plant response rating
Summary of the method: as §1

[7] = test system: Galium (catchweed bedstraw, Galium aparine); test: Test A postemergence; details: Galium, post-emergence, 240 h, 125 g ai/ha, Postemergence; visual injury after approximately 10 d; 0 to 100 scale where 0 is no effect and 100 is complete control; read-out: Plant response rating, Galium
Summary of the method: as §1

Kochia (Kochia scoparia) [8] = test: Test A postemergence; details: Bassia scoparia, post-emergence, 240 h, 125 g ai/ha, Postemergence; visual injury after approximately 10 d; 0 to 100 scale where 0 is no effect and 100 is complete control; read-out: Plant response rating, Kochia
Summary of the method: as §1

[9] = test system: barnyardgrass (Echinochloa crus-galli); test: Test A postemergence; details: Echinochloa crus-galli, post-emergence, 240 h, 125 g ai/ha, Postemergence; visual injury after approximately 10 d; 0 to 100 scale where 0 is no effect and 100 is complete control; read-out: Plant response rating, Barnyardgrass
Summary of the method: as §1

[10] = test system: blackgrass (Alopecurus myosuroides); test: Test A postemergence; details: Alopecurus myosuroides, post-emergence, 240 h, 125 g ai/ha, Postemergence; visual injury after approximately 10 d; 0 to 100 scale where 0 is no effect and 100 is complete control; read-out: Plant response rating, Blackgrass
Summary of the method: as §1

corn (Zea mays) = test: Test A postemergence; details: Zea mays, post-emergence, 240 h, 125 g ai/ha, Postemergence; visual injury after approximately 10 d; 0 to 100 scale where 0 is no effect and 100 is complete control
Summary of the method: as §1

[11] = test system: giant foxtail (Setaria faberii); test: Test A postemergence; details: Setaria faberi, post-emergence, 240 h, 125 g ai/ha, Postemergence; visual injury after approximately 10 d; 0 to 100 scale where 0 is no effect and 100 is complete control; read-out: Plant response rating, Foxtail, Giant
Summary of the method: as §1

[12] = test system: pigweed (Amaranthus retroflexus); test: Test A postemergence; details: Amaranthus retroflexus, post-emergence, 240 h, 125 g ai/ha, Postemergence; visual injury after approximately 10 d; 0 to 100 scale where 0 is no effect and 100 is complete control; read-out: Plant response rating, Pigweed
Summary of the method: as §1

[13] = test system: ragweed (common ragweed, Ambrosia elatior); test: Test A postemergence; details: Ambrosia artemisiifolia, post-emergence, 240 h, 125 g ai/ha, Postemergence; visual injury after approximately 10 d; 0 to 100 scale where 0 is no effect and 100 is complete control; read-out: Plant response rating, Ragweed
Summary of the method: as §1

[14] = test system: ryegrass, Italian (Italian ryegrass, Lolium multiflorum); test: Test A postemergence; details: Lolium multiflorum, post-emergence, 240 h, 125 g ai/ha, Postemergence; visual injury after approximately 10 d; 0 to 100 scale where 0 is no effect and 100 is complete control; read-out: Plant response rating, Ryegrass, Italian
Summary of the method: as §1

[15] = test system: wheat (Triticum aestivum); test: Test A postemergence; details: Triticum aestivum, post-emergence, 240 h, 125 g ai/ha, Postemergence; visual injury after approximately 10 d; 0 to 100 scale where 0 is no effect and 100 is complete control; read-out: Plant response rating, Wheat
Summary of the method: as §1

[16] = test system: barnyardgrass (Echinochloa crus-galli); test: Test B flooded paddy test; details: Echinochloa crus-galli, Flood, 250 g ai/ha; scale of 0 to 100 where 0 is no effect and 100 is complete control; read-out: Barnyardgrass plant response rating
Summary of the method: (§2)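 Compound goes directly into floodwater once pots are flooded 3 cm above soil, targeting plants at two leaves; the water depth is then held for the test duration. Plants sit 13–15 d in a greenhouse and are rated visually, 100 denoting complete control.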

[17] = test system: ducksalad (Heteranthera limosa); test: Test B flooded paddy test; details: Heteranthera limosa, Flood, 250 g ai/ha; scale of 0 to 100 where 0 is no effect and 100 is complete control; read-out: Ducksalad plant response rating
Summary of the method: as §2

rice (Oryra sativa) = test: Test B flooded paddy test; details: Oryza sativa, Flood, 250 g ai/ha; scale of 0 to 100 where 0 is no effect and 100 is complete control; read-out: Rice plant response rating
Summary of the method: as §2

[18] = test system: sedge, umbrella (small-flower umbrella sedge, Cyperus difformis); test: Test B flooded paddy test; details: Cyperus difformis, Flood, 250 g ai/ha; scale of 0 to 100 where 0 is no effect and 100 is complete control; read-out: Sedge, Umbrella plant response rating
Summary of the method: as §2

SMILES | pest or weed control at 125 g/ha (Kochia (Kochia scoparia) [1]) | pest or weed control at 500 g/ha (Kochia (Kochia scoparia) [1]) | pest or weed control at 125 g/ha [2] | pest or weed control at 500 g/ha [2] | pest or weed control at 125 g/ha [3] | pest or weed control at 500 g/ha [3] | pest or weed control at 125 g/ha [4] | pest or weed control at 500 g/ha [4] | pest or weed control at 125 g/ha [5] | pest or weed control at 500 g/ha [5] | pest or weed control at 125 g/ha [6] | pest or weed control at 500 g/ha [6] | pest or weed control at 125 g/ha [7] | pest or weed control at 125 g/ha (Kochia (Kochia scoparia) [8]) | pest or weed control at 125 g/ha [9] | pest or weed control at 125 g/ha [10] | Corn plant response rating (crop injury, 0 = no effect, 100 = complete kill) at 125 g/ha (corn (Zea mays)) | pest or weed control at 125 g/ha [11] | pest or weed control at 125 g/ha [12] | pest or weed control at 125 g/ha [13] | further results
O=C1NC[C@H](c2cc(C(F)(F)F)cs2)[C@H]1C(=O)Nc1cccc(F)c1F [Compound 961] | 70% | 90% | 90% | 90% | 70% | 90% | 0% | 30% | 60% | 90% | 30% | 80% | 30% | 50% | 90% | 30% | 20% | 30% | 0% | 20% | pest or weed control at 125 g/ha [14]: 20%; plant injury at 125 g/ha [15]: 0%; pest or weed control at 250 g/ha [16]: 40%; pest or weed control at 250 g/ha [17]: 100%; pest or weed control at 250 g/ha (rice (Oryra sativa)): 20%; pest or weed control at 250 g/ha [18]: 0%
CCOc1cccc([C@H]2CN(C)C(=O)[C@@H]2C(=O)Nc2ccc(F)cc2F)c1 [Compound 963] | 40% | 70% | 90% | 100% | 100% | 100% | 0% | 30% | 0% | 0% | 20% | 40% | 30% | 20% | 90% | 0% | 0% | 90% | 0% | 0% | pest or weed control at 125 g/ha [14]: 20%; plant injury at 125 g/ha [15]: 0%; pest or weed control at 250 g/ha [16]: 65%; pest or weed control at 250 g/ha [17]: 90%; pest or weed control at 250 g/ha (rice (Oryra sativa)): 0%; pest or weed control at 250 g/ha [18]: 0%
